ChEMBL document CHEMBL6096697, “Structure-Guided Discovery of Novel N4-(Substituted Thiazol-2-yl)-N2-(4-Substituted phenyl)pyrimidine-2,4-Diamines as Potent CDK2 and CDK9 Dual Inhibitors with High Oral Bioavailability” (J Med Chem, 2025)

Assays:
[1] = tested on: HeLa; assay: Induction of cell cycle arrest in human HeLa cells assessed as accumulation at sub-G1 phase at 0.9 uM incubated for 24 hrs by PI staining based flow cytometry (reference value: 1.89 +/- 0.56 %); assay type: functional
[2] = tested on: HeLa; assay: Induction of apoptosis in human HeLa cells assessed as viable cells at 0.9 uM incubated for 24 hrs by PI staining based flow cytometry (reference value: 68.9 %); assay type: functional; settings: read-out: Activity
[3] = tested on: MV4-11; assay: Antiproliferative activity against human MV4-11 cells assessed as cell growth inhibition incubated for 48 hrs by MTT assay; assay type: functional, cell-based; settings: MV4-11, 48 h
[4] = tested on: HeLa; assay: Induction of apoptosis in human HeLa cells assessed as late apoptotic cells at 3.6 uM incubated for 24 hrs by PI staining based flow cytometry (reference value: 3.85 %); assay type: functional
[5] = Toxicity in Balb/c-nu nude mouse xenografted with human HCT-116 cells assessed as body weight loss at 35 to 70 mg/kg/day, po treated for 30 days; assay type: organism-based; settings: in vivo, 720 h, dose 35-70 mg/kg/day, time 30 day
[6] = tested on: HCT-116; assay: Induction of apoptosis in human HCT-116 cells assessed as necrotic cells at 0.8 uM incubated for 24 hrs by PI staining based flow cytometry (reference value: 18.9 %); assay type: functional
[7] = tested on: HCT-116; assay: Induction of apoptosis in human HCT-116 cells assessed as viable cells at 0.4 uM incubated for 24 hrs by PI staining based flow cytometry (reference value: 79.4 %); assay type: functional; settings: read-out: Activity
[8] = target: Cyclin-dependent kinase 2 (Homo sapiens) (UniProt P24941); assay: Inhibition of CDK2 in human HCT-116 cells assessed as reduction in Rb phosphorylation at Ser780 incubated for 24 hr s by Western blot analysis; assay type: cell-based; settings: dose <= 0.8 µM
[9] = tested on: HeLa; assay: Induction of apoptosis in human HeLa cells assessed as early apoptotic cells at 0.9 uM incubated for 24 hrs by PI staining based flow cytometry (reference value: 0.8 %); assay type: functional
[10] = tested on: HCT-116; assay: Induction of cell cycle arrest in human HCT-116 cells assessed as accumulation at G1/G0 phase at 0.8 uM incubated for 24 hrs by PI staining based flow cytometry (reference value: 58.29 +/- 2.01 %); assay type: functional

`Cc1cnc(Nc2ccc(S(N)(=O)=O)cc2)nc1Nc1nccs1` showed an Activity [1] of 1.81%, a viability at 0.9 µM [2] of 29.1% and an IC50 [3] of 121 nM. For the same molecule, the Activity [4] was 27.3%, the Activity [5] was “Non-toxic” and the Activity [6] was 4%. For the same molecule, the viability at 0.4 µM [7] was 54.4%, the inhibition [8] was “Dose-dependent-effect” and the Activity [9] was 65.8%. It also gave an Activity [10] of 43.88%.
